Like-named read-outs stand apart in the source and are kept apart here.
Experiments:
[1] = C5 hydrocarbon solubility in ionic liquid (volume change of hydrocarbon phase)
Protocol: The locations of all meniscuses were then recorded. […] The testing was conducted at ambient temperature.

[2] = Cyclo-C8 hydrocarbon solubility in ionic liquids
[3] = ambient temperature; for Propane absorbed (mol C3H8/L absorbent) / Propylene absorbed (mol C3H6/L absorbent): equilibrium
Protocol: The testing apparatus consists of two sample cylinders (one 1000 cc cylinder and one 150 cc cylinder) connected by ⅛-inch tubing with valves allowing for isolation of each cylinder. A digital pressure gauge indicates the larger cylinder pressure and the pressure of the system when the cylinders are not isolated.
To measure absorption, 50 mL of bmim^+ BF4^− absorbent was loaded into the smaller cylinder and the larger cylinder was pressurized with the hydrocarbon gas. The amount of gas absorbed by the sample of bmim^+BF4^− is proportional to the pressure drop that occurs when the sample is exposed to the test gas, and can be calculated knowing the internal volume of the closed system.
The sample was then exposed to the gas in the large 1000 cc cylinder as the valve separating the cylinders was opened. The initial pressure drop was recorded. The sample was stirred via magnetic stirrer. When the system came to equilibrium (no pressure changed for over 1 hour) the final absorption pressure was recorded and the cylinders were once again separated. This procedure could be repeated for different absorption pressures. Experiments were conducted at ambient temperature.
Between experimental runs, the absorbent was degassed by bubbling a nitrogen entrainment gas through the absorbent for 2 to 3 hours.

[4] = in bmim^+ BF4^− ionic liquid, ambient temperature

**Q.** With CC=C(C)C [2-Methyl-2-Butene, 2-methyl-2-butene] as the molecule, how does the “Selectivity over Isopentane” value [1, 4] read?
**A.** The value was 10.6.

**Q.** And the “Solubility (mol C5/L ionic liquid)” value [1, 4]?
**A.** Its value is 0.360 mol C5/L ionic liquid.

**Q.** For CCc1ccccc1 [Ethylbenzene, ethylbenzene], which “Solubility in mbpy^+ BF4^− (mol C8/L ionic liquid)” value [2] is on record?
**A.** Its value is 0.551 mol C8/L ionic liquid.

**Q.** Which “Solubility (mol C5/L ionic liquid)” value [1] does the source give for CCC(C)C [Isopentane, isopentane] here?
**A.** The value was 0.034 mol C5/L ionic liquid.

**Q.** What does the source list for C=CC(=C)C [Isoprene, isoprene]?
**A.** Selectivity over Isopentane [1, 4]: 18.0; Solubility (mol C5/L ionic liquid) [1, 4]: 0.611 mol C5/L ionic liquid

**Q.** What does the source list for CCCCn1cc[n+](C)c1.F[B-](F)(F)F [bmim^+ BF4^−, 1-butyl-3-methylimidazolium tetrafluoroborate]?
**A.** C3H6:C3H8 Selectivity ([3]; 50.0 psig): 3.55; Propane absorbed (mol C3H8/L absorbent) ([3]; 50.0 psig): 0.011 mol C3H8/L absorbent; Propylene absorbed (mol C3H6/L absorbent) ([3]; 50.0 psig): 0.039 mol C3H6/L absorbent; C3H6:C3H8 Selectivity ([3]; 72.6 psig): 9.92; Propane absorbed (mol C3H8/L absorbent) ([3]; 72.6 psig): 0.012 mol C3H8/L absorbent; Propylene absorbed (mol C3H6/L absorbent) ([3]; 72.6 psig): 0.119 mol C3H6/L absorbent
